According to patent US20140128606A1, “ANTIPRURITIC AGENT” (Toray Industries, Inc., priority 2011, published 2014):
Counter-ions that a name gives are not always drawn. Like-named read-outs stand apart in the source and are kept apart here.

Assays:
[1] = test system: substance P-induced scratching behavior; test: Inhibitory effect on substance P-induced scratching behavior in mice (MicroAct automatic detection); assay type: in vivo, mouse; conditions: for Number of scratching behavior (means ± standard error): counted for 15 minutes
Description: Substance P-induced scratching behavior in mice which is an intractable pruritus model was induced by the method described in a known document (Togashi et al., European Journal of Pharmacology, 2002, Vol. 435, p. 259 and the like). Further, evaluation of the scratching behavior was objectively carried out by automatic detection using MicroAct (NeuroScience, Inc.) based on the method described in a known document (Hashimoto et al., Allergology International, 2004, Vol. 53, p. 349).
More particularly, at least five days before the evaluation of drug effect, neodymium magnets (diameter: 1 mm, length: 3 mm) coated with Parafilm were subcutaneously inserted into the insteps of both hind limbs of 5 to 7 week-old male ICR mouse (Japan SLC, Inc.) under isoflurane anesthesia. One or two days before the day of the evaluation of drug effect, the hair of the rostral part of the back of the mouse was shaved with a hair clipper under isoflurane anesthesia. At least one hour before the start of the measurement of the number of scratching behavior, each mouse (6 to 8 weeks old) was individually placed in a chamber for measurement (diameter: 11 cm, height: 18 cm) for acclimation. After the acclimation, substance P (5 mmol/L) or phosphate-buffered saline (hereinafter referred to as PBS) as a solvent thereof was intradermally administered (0.05 mL/site) into the rostral part of the back, and the measurement of the number of scratching behavior was started immediately after the administration. The number of scratching behavior was recorded by amplifying electric current induced by the movement of the magnets inserted in the hind limbs in a round coil surrounding the chamber for measurement. The measurement was carried out under unattended environment, and the evaluation of the drug effect was carried out by using the number of scratching behavior occurred for 15 minutes after the start of the measurement as an index.
A test compound or a solvent thereof was administered in an amount of 10 mL/kg 30 to 60 minutes before the start of the measurement of the number of scratching behavior. Varenicline tartrate (Tocris Bioscience) was dissolved in PBS and intraperitoneally administered in a dose of 1, 3 or 10 mg/kg 60 minutes before the start of the measurement of the number of scratching behavior. N-(1-azabicyclo[2.2.2]oct-3(R)-yl)-4-chlorobenzamide hydrochloride (PNU-282987) hydrate (Sigma-Aldrich) was dissolved in PBS and intraperitoneally administered in a dose of 0.3 or 1 mg/kg 45 minutes before the start of the measurement of the number of scratching behavior. The compound of Reference Example 1 was dissolved in PBS and intraperitoneally administered in a dose of 0.1 or 0.3 mg/kg 30 minutes before the start of the measurement of the number of scratching behavior. The compound of Reference Example 2 was dissolved in PBS and intraperitoneally administered in a dose of 1, 3, or 10 mg/kg 45 minutes before the start of the measurement of the number of scratching behavior. The compound of Reference Example 3 was dissolved in distilled water and orally administered in a dose of 1, 3, or 10 mg/kg 30 minutes before the start of the measurement of the number of scratching behavior. The compound of Reference Example 4 was dissolved in PBS and intraperitoneally administered in a dose of 1, 3, or 10 mg/kg 45 minutes before the start of the measurement of the number of scratching behavior. The compound of Reference Example 5 was dissolved in PBS and intraperitoneally administered in a dose of 1, 3, or 10 mg/kg 30 minutes before the start of the measurement of the number of scratching behavior. The compound of Reference Example 6 was dissolved in PBS and intraperitoneally administered in a dose of 1, 3, or 10 mg/kg, 30 minutes before the start of the measurement of the number of scratching behavior. […]

[2] = test system: substance P-induced scratching behavior; conditions: literature; cited from earlier work
[3] = Mus musculus, ip, read-out: Inhibition rate
[4] = i.p., 0.3 mg/kg, substance P 250 nmol/site
[5] = i.p., 1 mg/kg, substance P 250 nmol/site
[6] = Mus musculus, ip, 0.1 mg/kg, substance P 250 nmol/site, read-out: Inhibition rate
[7] = Mus musculus, ip, 0.3 mg/kg, substance P 250 nmol/site, read-out: Inhibition rate
[8] = i.p., 0.1 mg/kg, substance P 250 nmol/site
[9] = Mus musculus, ip, 1 mg/kg, substance P 250 nmol/site, read-out: Inhibition rate
[10] = Mus musculus, ip, 3 mg/kg, substance P 250 nmol/site, read-out: Inhibition rate
[11] = Mus musculus, ip, 10 mg/kg, substance P 250 nmol/site, read-out: Inhibition rate
[12] = i.p., 3 mg/kg, substance P 250 nmol/site
[13] = i.p., 10 mg/kg, substance P 250 nmol/site
[14] = Mus musculus, po, read-out: Inhibition rate
[15] = p.o., 10 mg/kg, substance P 250 nmol/site

Q: For `Cl.O=C(N[C@H]1CN2CCC1CC2)c1ccc(Cl)cc1` [PNU-282987 hydrate, N-(1-azabicyclo[2.2.2]oct-3(R)-yl)-4-chlorobenzamide hydrochloride, reference compound], which inhibition at 0.3 mg/kg [1, 3] is on record?
A: 42%

Q: What about the inhibition at 1 mg/kg [1, 3] of the same compound?
A: 72%

Q: What about the “Number of scratching behavior (means ± standard error)” value (“Number … (means ± standard error)” for short) [1, 4] of the same compound?
A: 81 ± 9

Q: And the “Number … (means ± standard error)” value [1, 5]?
A: 48 ± 8

Q: What does the source list for `Cl.Clc1ccc(OC[C@H]2CCN2)cn1` [Reference Example 1, (R)-2-Chloro-5-(2-azetidinylmethoxy)pyridine hydrochloride]?
A: inhibition at 0.1 mg/kg [1, 6]: 107%; inhibition at 0.3 mg/kg [1, 7]: 121%; Number of scratching behavior (means ± standard error) [1, 8]: 21 ± 8; Number of scratching behavior (means ± standard error) [1, 4]: 6 ± 2

Q: With `Cl.O=C(CCCCN1CCOCC1)Nc1ccc(-c2cccnc2)cc1` [Reference Example 6, 5-(4-Morpholinyl)-N-(4-(3-pyridyl)phenyl)pentanamide hydrochloride] as the compound, how does the inhibition at 1 mg/kg [1, 9] read?
A: 32%

Q: What about the inhibition at 3 mg/kg [1, 10] of the same compound?
A: 52%

Q: And the inhibition at 10 mg/kg [1, 11]?
A: 104%

Q: And the “Number … (means ± standard error)” value [1, 5]?
A: 94 ± 15

Q: And the “Number … (means ± standard error)” value [1, 12]?
A: 78 ± 10

Q: And the “Number … (means ± standard error)” value [1, 13]?
A: 36 ± 5

Q: For `O=C(N[C@@H]1C2CCN(CC2)[C@H]1Cc1cccnc1)c1cc2ccccc2o1` [Reference Example 2, N-(2(S)-(Pyridin-3-ylmethyl)-1-azabicyclo[2.2.2]oct-3(R)-yl)-1-benzofuran-2-carboxamide], which inhibition at 1 mg/kg [1, 9] is on record?
A: 71%

Q: And the inhibition at 3 mg/kg [1, 10]?
A: 38%

Q: And the inhibition at 10 mg/kg [1, 11]?
A: 62%

Q: And the “Number … (means ± standard error)” value [1, 5]?
A: 67 ± 10

Q: And the “Number … (means ± standard error)” value [1, 12]?
A: 97 ± 14

Q: And the “Number … (means ± standard error)” value [1, 13]?
A: 75 ± 8

Q: Which results are given for `Cl.O=C(Oc1ccc(Br)cc1)N1CCN2CCC1CC2` [Reference Example 4, 1,4-Diazabicyclo[3.2.2]nonane-4-carboxylic acid 4-bromophenyl ester hydrochloride]?
A: inhibition at 1 mg/kg [1, 3]: 32%; inhibition at 3 mg/kg [1, 3]: 63%; inhibition at 10 mg/kg [1, 3]: 80%; Number of scratching behavior (means ± standard error) [1, 5]: 89 ± 12; Number of scratching behavior (means ± standard error) [1, 12]: 59 ± 14; Number of scratching behavior (means ± standard error) [1, 13]: 42 ± 6

Q: With `C=CC[C@@H]1/C=C(\C)C[C@H](C)C[C@H](OC)[C@H]2O[C@@](O)(C(=O)C(=O)N3CCCC[C@H]3C(=O)O[C@H](/C(C)=C/[C@@H]3CC[C@@H](O)[C@H](OC)C3)[C@H](C)[C@@H](O)CC1=O)[C@H](C)C[C@@H]2OC` [tacrolimus] as the compound, how does the “Inhibition of substance P-induced scratching behavior in mice (in words)” value [2] read?
A: not inhibited

Q: For `O=C(O)Cc1ccccc1Nc1c(Cl)cccc1Cl` [diclofenac], which “Inhibition of substance P-induced scratching behavior in mice (in words)” value [2] is on record?
A: not inhibited

Q: With `COc1ccc2c(c1)c(CC(=O)O)c(C)n2C(=O)c1ccc(Cl)cc1` [indomethacin] as the compound, how does the “Inhibition of substance P-induced scratching behavior in mice (in words)” value [2] read?
A: not inhibited

Q: What does the source list for `CN1C[C@@H]2CN(c3ccc(-c4ccccc4)nn3)C[C@@H]2C1` [Reference Example 7, cis-2-methyl-5-(6-phenylpyridazin-3-yl)perhydropyrrolo[3,4-c]pyrrole fumarate]?
A: inhibition at 0.3 mg/kg [1, 3]: 25%; inhibition at 1 mg/kg [1, 3]: 79%; inhibition at 3 mg/kg [1, 3]: 66%; Number of scratching behavior (means ± standard error) [1, 4]: 101 ± 20; Number of scratching behavior (means ± standard error) [1, 5]: 37 ± 8; Number of scratching behavior (means ± standard error) [1, 12]: 52 ± 9

Q: Which results are given for `C[C@H](OC(=O)N[C@@H]1CN2CCC1CC2)c1ccccc1F` [Reference Example 8, (S)-1-(2-fluorophenyl)ethyl(S)-quinuclidin-3-ylcarbamate]?
A: inhibition at 10 mg/kg [1, 14]: 41%; inhibition at 30 mg/kg [1, 14]: 49%; Number of scratching behavior (means ± standard error) [1, 15]: 92 ± 17; Number of scratching behavior (means ± standard error) ([1]; p.o., 30 mg/kg, substance P 250 nmol/site): 83 ± 19

Q: With `O=C(N[C@H]1CN2CCC1CC2)c1cc2ccoc2cn1` [Reference Example 9, N-(1-Azabicyclo[2.2.2]oct-3(R)-yl)furo[2,3-c]pyridine-5-carboxamide dihydrochloride] as the compound, how does the inhibition at 0.1 mg/kg [1, 6] read?
A: 10%

Q: And the inhibition at 0.3 mg/kg [1, 7]?
A: 43%

Q: What about the inhibition at 1 mg/kg [1, 9] of the same compound?
A: 70%

Q: What about the “Number … (means ± standard error)” value [1, 8] of the same compound?
A: 109 ± 21

Q: And the “Number … (means ± standard error)” value [1, 4]?
A: 76 ± 18

Q: What about the “Number … (means ± standard error)” value [1, 5] of the same compound?
A: 50 ± 10

Q: Which inhibition at 1 mg/kg [1, 9] does the source give for `Cc1ccc2oc(N3CCN4CCC3CC4)nc2n1.Cl` [Reference Example 5, 2-(1,4-Diazabicyclo[3.2.2]non-4-yl)-5-methyloxazolo[4,5-b]pyridine hydrochloride] here?
A: 25%

Q: And the inhibition at 3 mg/kg [1, 10]?
A: 46%

Q: And the inhibition at 10 mg/kg [1, 11]?
A: 59%

Q: And the “Number … (means ± standard error)” value [1, 5]?
A: 82 ± 6

Q: What about the “Number … (means ± standard error)” value [1, 12] of the same compound?
A: 62 ± 11

Q: And the “Number … (means ± standard error)” value [1, 13]?
A: 50 ± 12

Q: For `Cl.O=C(N[C@H]1CN2CCC1CC2)c1ccc2c(c1)OCCO2` [Reference Example 10, N-(1-Azabicyclo[2.2.2]oct-3(R)-yl)-2,3-dihydro-1,4-benzodioxin-6-carboxamide hydrochloride], which inhibition at 0.1 mg/kg [1, 3] is on record?
A: 3%

Q: What about the inhibition at 0.3 mg/kg [1, 3] of the same compound?
A: 17%

Q: And the inhibition at 1 mg/kg [1, 3]?
A: 58%

Q: What about the “Number … (means ± standard error)” value [1, 8] of the same compound?
A: 131 ± 18

Q: And the “Number … (means ± standard error)” value [1, 4]?
A: 115 ± 19

Q: What about the “Number … (means ± standard error)” value [1, 5] of the same compound?
A: 69 ± 10

Q: For `Cl.O=C(N[C@H]1CN2CCC1CC2)c1cc2cccc(Cl)c2s1` [Reference Example 3, (R)-7-Chloro-N-(quinuclidin-3-yl)benzo[b]thiophene-2-carboxamide hydrochloride], which inhibition at 1 mg/kg ([1]; Mus musculus, po, 1 mg/kg, substance P 250 nmol/site, read-out: Inhibition rate) is on record?
A: 32%

Q: And the inhibition at 3 mg/kg ([1]; Mus musculus, po, 3 mg/kg, substance P 250 nmol/site, read-out: Inhibition rate)?
A: 51%

Q: What about the inhibition at 10 mg/kg ([1]; Mus musculus, po, 10 mg/kg, substance P 250 nmol/site, read-out: Inhibition rate) of the same compound?
A: 79%

Q: What about the “Number … (means ± standard error)” value ([1]; p.o., 1 mg/kg, substance P 250 nmol/site) of the same compound?
A: 71 ± 14

Q: What about the “Number … (means ± standard error)” value ([1]; p.o., 3 mg/kg, substance P 250 nmol/site) of the same compound?
A: 57 ± 13

Q: What about the “Number … (means ± standard error)” value [1, 15] of the same compound?
A: 36 ± 8
